This note sets out measurements from ChEMBL document CHEMBL4483862, “Open-source discovery of chemical leads for next-generation chemoprotective antimalarials” (2018).

The test concerns Plasmodium berghei. The experiment in a line: Luciferase/luciferin-expressing antifolate-resistant parasites were used to infect a culture of HepG2 cells that were pre-incubated with compounds. Infected hepatocytes emit light due to the luciferase reaction. Assay results are presented as the percent inhibition of light emission compared to control. […]. Type of test: functional. As to conditions: sporozoite; for IC90: read-out: LUCIFERASE INFECTION ASSAY - IC90.

Where [1] appears, read: read-out: LUCIFERASE INFECTION ASSAY - IC50.

One may read the IC50 as the concentration needed to halve the response being measured. Usually IC90 stands for the concentration needed for an effect of 90%. For `COC(CNC(=S)c1c(-c2ccc(Cl)cc2)c2c3n(c(-c4cccc(S(=O)(=O)N5CCOCC5)c4)nn13)CCCC2)OC`, the IC90 amounted to 0.453 µM. The IC50 (FFLUC_HILL_SLOPE 2.83, FFLUC_R_SQUARED 0.688, HEPG2TOX_HILL_SLOPE 16.1, HEPG2TOX_R_SQUARED 0.632, PBLUC_HILL_SLOPE 13, PBLUC_R_SQUARED 0.649, read-out: LUCIFERASE INFECTION ASSAY - IC50) stood at 0.383 µM.
As for `Cc1ccc2c(c1)s/c(=N/C(=O)c1cccs1)n2C`, the IC90 was over 10 µM. For the same compound, the 50% inhibitory concentration (IC50) under setting [1] was found to be 2.27 µM.
Turning to `Cn1c(-c2ccccc2)c(/C=N/Nc2ccnc3cc(Cl)ccc23)c2ccccc21`, the IC90 came to 6.47 µM. The IC50 (HEPG2TOX_HILL_SLOPE 17.0, 5.95, HEPG2TOX_R_SQUARED 0.687, 0.986, PBLUC_HILL_SLOPE 1.29, PBLUC_R_SQUARED 0.592, read-out: LUCIFERASE INFECTION ASSAY - IC50) is 1.17 µM.
For `N#Cc1c(Cl)cccc1Oc1ccc(S(=O)(=O)Oc2c(Cl)cccc2Cl)cc1`, the IC90 is over 7.26 µM. Further, under “PBLUC_HILL_SLOPE 2.67, PBLUC_R_SQUARED 0.0667, read-out: LUCIFERASE INFECTION ASSAY - IC50”, the IC50 turned out to be 6.81 µM.
Take `O=[N+]([O-])c1cc(Cl)ccc1Oc1c(Cl)cccc1Cl`: the IC90 is over 10.4 µM. Moreover, the IC50 under setting [1] was over 10.4 µM.
As for `CS(=O)(=O)Nc1nc(-c2ccccn2)nc2scc(-c3ccccc3)c12`, the IC90 turned out to be 3.29 µM. Also, where the note is “HEPG2TOX_HILL_SLOPE 1.24, HEPG2TOX_R_SQUARED 0.884, PBLUC_HILL_SLOPE 3.45, PBLUC_R_SQUARED 0.254, read-out: LUCIFERASE INFECTION ASSAY - IC50”, the IC50 worked out at 1.74 µM.
For `CCNC(=O)C1CCCN(Cc2cc(C(F)(F)F)ccc2Cl)CC1` (centres undefined), the IC90 was determined as 3.4 µM. Where the note is “PBLUC_HILL_SLOPE 383, PBLUC_R_SQUARED 0.415, read-out: LUCIFERASE INFECTION ASSAY - IC50”, the IC50 stood at 3.38 µM.
With `CC(C)c1ccc(NC(=O)C2=COC3=NC(=O)N(Cc4cccc(C#N)c4)CCN23)cc1`, the IC90 came to 1.27 µM. Moreover, the IC50 (HEPG2TOX_HILL_SLOPE 1.33, HEPG2TOX_R_SQUARED 0.794, PBLUC_HILL_SLOPE 15.4, PBLUC_R_SQUARED 0.591, read-out: LUCIFERASE INFECTION ASSAY - IC50) stood at 1.1 µM.
`COc1cc(-c2cc3c(cn2)nc(NCc2cccc(C)c2)n3C)ccc1O`: the IC90 was over 10 µM. In addition, the IC50 under setting [1] was over 10 µM.
Turning to `CC(=O)c1cccc(-c2ccc3ncc(-c4cccc(C(F)(F)F)c4)n3n2)c1`, the IC90 is 0.407 µM. For the same compound, under “HEPG2TOX_HILL_SLOPE 2.43, HEPG2TOX_R_SQUARED 0.95, PBLUC_HILL_SLOPE 15.4, PBLUC_R_SQUARED 0.713, read-out: LUCIFERASE INFECTION ASSAY - IC50”, the IC50 amounted to 0.353 µM.
Take `O=c1c(Cl)c(Cl)cnn1-c1nc2ccccc2[nH]1`: the 90% effect concentration (IC90) was 1.65 µM. For the same compound, where the note is “HEPG2TOX_HILL_SLOPE 2.11, HEPG2TOX_R_SQUARED 0.958, PBLUC_HILL_SLOPE 7.93, PBLUC_R_SQUARED 0.809, read-out: LUCIFERASE INFECTION ASSAY - IC50”, the IC50 was 1.25 µM.
Take `CCc1ccc(S(=O)(=O)Nc2cc(Sc3ccc(C)cc3)c(O)c3ccccc23)cc1`: the concentration for an effect of 90% (IC90) was over 10 µM. Under “PBLUC_HILL_SLOPE 1.24, PBLUC_R_SQUARED 0.466, read-out: LUCIFERASE INFECTION ASSAY - IC50”, the IC50 came to 5.98 µM.
As for `Cc1nc(CCNC(=O)Cc2cn(-c3ccccc3)nc2-c2ccc(Cl)cc2)cs1`, the IC90 was over 10 µM. In addition, the IC50 (HEPG2TOX_HILL_SLOPE 0.133, HEPG2TOX_R_SQUARED 0.316, PBLUC_HILL_SLOPE 7.24, PBLUC_R_SQUARED 0.0479, read-out: LUCIFERASE INFECTION ASSAY - IC50) was found to be 8.62 µM.
On to `COc1ccccc1NC(=O)C(C)OC(=O)c1ccc(NS(=O)(=O)c2ccc(Cl)c(Cl)c2)cc1` (centres undefined), for which the 90% effect concentration (IC90) was over 10 µM. Besides, the IC50 (HEPG2TOX_HILL_SLOPE 8.29, HEPG2TOX_R_SQUARED 0.881, read-out: LUCIFERASE INFECTION ASSAY - IC50) is over 10 µM.
Take `COc1cccc(CN(C)c2ncnc3sc(C)c(C)c23)c1OC`: the IC90 is 3.84 µM. Besides, the IC50 (HEPG2TOX_HILL_SLOPE 2.36, HEPG2TOX_R_SQUARED 0.798, PBLUC_HILL_SLOPE 15.6, PBLUC_R_SQUARED 0.417, read-out: LUCIFERASE INFECTION ASSAY - IC50) amounted to 3.34 µM.
Consider `Cc1ccc2nc(NC(=O)c3ccc(F)cc3)c(C(=O)NC3CCCCC3)n2c1`, for which the IC90 was 4.51 µM. For the same compound, under “HEPG2TOX_HILL_SLOPE 8.64, HEPG2TOX_R_SQUARED 0.539, PBLUC_HILL_SLOPE 8.68, PBLUC_R_SQUARED 0.013, read-out: LUCIFERASE INFECTION ASSAY - IC50”, the IC50 worked out at 3.5 µM.
`O=C(Nc1ccc2c(c1)OC1(CCCCC1)O2)c1ccc[nH]c1=O`: the IC90 was over 10 µM. Also, the IC50 (FFLUC_HILL_SLOPE 3.32, FFLUC_R_SQUARED 0.581, PBLUC_HILL_SLOPE 0.537, PBLUC_R_SQUARED 0.823, read-out: LUCIFERASE INFECTION ASSAY - IC50) is 0.172 µM.
As to `OC(COc1ccc(Cl)cc1)CN1CCC(Cc2ccccc2)CC1` (centres undefined), the IC90 amounted to 8.19 µM. Also, under “PBLUC_HILL_SLOPE 16.8, 4.66, PBLUC_R_SQUARED 0.391, 0.0786, read-out: LUCIFERASE INFECTION ASSAY - IC50”, the IC50 was determined as 6.33 µM.
Turning to `O=C(COc1ccc2c3c(c(=O)oc2c1)CCC3)Nc1nc(-c2ccccn2)cs1`, the IC90 was over 10 µM. Under “HEPG2TOX_HILL_SLOPE 8.22, HEPG2TOX_R_SQUARED 0.725, PBLUC_HILL_SLOPE 12.7, PBLUC_R_SQUARED 0.0522, read-out: LUCIFERASE INFECTION ASSAY - IC50”, the IC50 amounted to 9.13 µM.
`Cc1ccnc(NC(c2ccccn2)c2ccc3ccc(C)nc3c2O)c1` (centres undefined): the IC90 was over 9.26 µM. Where the note is “HEPG2TOX_HILL_SLOPE 1.81, HEPG2TOX_R_SQUARED 0.956, PBLUC_HILL_SLOPE 14.5, PBLUC_R_SQUARED 0.453, read-out: LUCIFERASE INFECTION ASSAY - IC50”, the IC50 came out at 8.04 µM.
As to `CNC(=O)NC(=O)COc1ccccc1C#N`, the IC90 is over 10 µM. Besides, the IC50 (FFLUC_HILL_SLOPE 16.2, FFLUC_R_SQUARED 0.422, read-out: LUCIFERASE INFECTION ASSAY - IC50) was over 10 µM.
Regarding `Cc1sc2ncnc(Sc3ccccc3C(=O)NNc3c(Cl)cc(Cl)cc3Cl)c2c1C`, the IC90 is over 10 µM. Further, the IC50 under setting [1] was over 10 µM.
On to `COc1ccc(C(NCc2cccc3ccccc23)C2CC2)cc1` (centres undefined), for which the IC90 is over 10 µM. Moreover, under setting [1], the IC50 was over 10 µM.
In the case of `CC1CN(S(=O)(=O)c2cc(Cl)c(Oc3ccc([N+](=O)[O-])cc3Cl)c(Cl)c2)CC(C)O1` (centres undefined), the IC90 was over 6.66 µM. Further, under setting [1], the IC50 is over 6.66 µM.
In the case of `CCOC(=O)c1c(-c2ccc(Cl)cc2)csc1NC(=O)CSc1nc2c(c(CC)c1C#N)C(=O)CC(C)(C)C2`, the concentration for an effect of 90% (IC90) was over 10 µM. Further, the IC50 (FFLUC_HILL_SLOPE 17.7, FFLUC_R_SQUARED 0.746, PBLUC_HILL_SLOPE 12.9, PBLUC_R_SQUARED 0.506, read-out: LUCIFERASE INFECTION ASSAY - IC50) came to 9.02 µM.
In the case of `COCCCn1c(SCC(=O)NC(=O)Nc2ccccc2)n[nH]c1=O`, the IC90 is over 10 µM. The 50% inhibitory concentration (IC50) under setting [1] is over 10 µM.
Consider `CCN(CCNc1ncnc2sc3c(c12)CCC3)c1cccc(C)c1`, for which the IC90 turned out to be 1.44 µM. Besides, the IC50 (HEPG2TOX_HILL_SLOPE 1.22, HEPG2TOX_R_SQUARED 0.961, PBLUC_HILL_SLOPE 11.3, PBLUC_R_SQUARED 0.508, read-out: LUCIFERASE INFECTION ASSAY - IC50) was found to be 1.18 µM.
In the case of `C/C(N)=C(/C#N)C(=O)COC(=O)CCN1C(=O)C2CC=CCC2C1=O` (centres undefined), the IC90 was over 10 µM. Besides, the IC50 under setting [1] is over 10 µM.
Regarding `COC(=O)c1c(NC(=O)c2ccoc2)c2cc(NC(C)CC(F)(F)F)cnc2n1CC(C)C` (centres undefined), the IC90 was over 7.07 µM. Further, the IC50 under setting [1] is over 7.07 µM.
For `COCOc1ccc(-c2cc(-c3cc(C)c(O)c(C)c3)cnc2N)cc1`, the concentration for an effect of 90% (IC90) was 6.77 µM. Under setting [1], the IC50 is 4.46 µM.
As to `Cc1cc(OCC(=O)NCCc2c(C)cc(C(C)(C)C)cc2C)no1`, the IC90 was found to be 6.12 µM. Where the note is “PBLUC_HILL_SLOPE 10.6, 8.08, PBLUC_R_SQUARED 0.262, 0.836, read-out: LUCIFERASE INFECTION ASSAY - IC50”, the IC50 came out at 4.78 µM.
`COc1ccc(CCn2cnc3c(cnn3-c3ccc(C)cc3)c2=O)cc1`: the IC90 worked out at 0.133 µM. The IC50 (FFLUC_HILL_SLOPE 2.44, FFLUC_R_SQUARED 0.232, HEPG2TOX_HILL_SLOPE 1.29, HEPG2TOX_R_SQUARED 0.958, PBLUC_HILL_SLOPE 8.61, PBLUC_R_SQUARED 0.878, read-out: LUCIFERASE INFECTION ASSAY - IC50) is 0.103 µM.
Turning to `Cc1ccc(NC(=O)CN2CCN(Cc3c(O)ccc4ccncc34)CC2)cc1`, the IC90 was over 10 µM. Also, the IC50 under setting [1] was over 10 µM.
Turning to `O=C(Nc1ccn(-c2ccccc2)n1)c1cc(-c2ccccc2)nc2ccccc12`, the IC90 was over 10 µM. Moreover, the IC50 (PBLUC_HILL_SLOPE 22.3, 9.62, PBLUC_R_SQUARED 0.228, 0.621, read-out: LUCIFERASE INFECTION ASSAY - IC50) stood at 9.46 µM.
Regarding `CNc1nc2cnc(Nc3cccc(C(C)C)c3)cc2n1CC1CC1`, the concentration for an effect of 90% (IC90) was found to be 9.92 µM. Moreover, for the setting “PBLUC_HILL_SLOPE 4.69, PBLUC_R_SQUARED 0.216, read-out: LUCIFERASE INFECTION ASSAY - IC50”, the IC50 came to 6.21 µM.
In the case of `CC(=N)C(C#N)c1csc(NC(=O)c2cc(-c3ccccc3)nc3c2cnn3C(C)C)n1` (centres undefined), the IC90 was found to be 9.99 µM. Further, the concentration for half-maximal inhibition (IC50) under setting [1] was determined as 6.35 µM.
The corresponding values for `CCCCNC(=O)c1c(NC(=O)c2c(F)ccc(F)c2F)nc2ccccn12` are over 8.45 µM and over 8.45 µM.
